Measured values from PubChem BioAssay AID328 (DTP/NCI, 2004).
Several values for one entry are separate records, joined by “and”; a condition that tells them apart may be missing. Equal entries are not always repeated. Inconclusive results and toxic doses are left out. How the source made its calls: active means survival T/C of 150% or more; inactive means T/C below 125% in these data.

System: BDF1 mice, P388 leukemia ip, median survival T/C
Test: NCI In Vivo Anticancer Drug Screen. Data for tumor model P388 Leukemia (intraperitoneal) in B6D2F1 (BDF1) mice
Settings: endpoint: median survival time, higher = longer survival
Procedure, shortened: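 Steps: implant the tumour, treat one group with compound and another with vehicle, record survival, then divide treated by control.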

[1] = dose: 100.0 mg/kg/injection, schedule: Q01DX009 (ip), vehicle: Klucel (hydroxypropylcellulose) (HPC)
[2] = dose: 100.0 mg/kg/injection, schedule: Q04DX003 (ip), vehicle: Klucel (hydroxypropylcellulose) (HPC)
[3] = dose: 200.0 mg/kg/injection, schedule: Q01DX009 (ip), vehicle: Klucel (hydroxypropylcellulose) (HPC)
[4] = dose: 200.0 mg/kg/injection, schedule: Q04DX003 (ip), vehicle: Klucel (hydroxypropylcellulose) (HPC)
[5] = dose: 400.0 mg/kg/injection, schedule: Q04DX003 (ip), vehicle: Klucel (hydroxypropylcellulose) (HPC)
[6] = dose: 100.0 mg/kg/injection, schedule: Q01DX009 (ip), vehicle: saline with Tween-80
[7] = dose: 100.0 mg/kg/injection, schedule: Q04DX003 (ip), vehicle: saline sonified
[8] = dose: 200.0 mg/kg/injection, schedule: Q01DX009 (ip), vehicle: saline with Tween-80
[9] = dose: 200.0 mg/kg/injection, schedule: Q04DX003 (ip), vehicle: saline sonified
[10] = dose: 400.0 mg/kg/injection, schedule: Q01DX009 (ip), vehicle: saline with Tween-80
[11] = dose: 100.0 mg/kg/injection, schedule: Q01DX001 (ip), vehicle: saline with Tween-80
[12] = dose: 200.0 mg/kg/injection, schedule: Q01DX001 (ip), vehicle: saline with Tween-80
[13] = dose: 400.0 mg/kg/injection, schedule: Q01DX001 (ip), vehicle: saline with Tween-80
[14] = dose: 100.0 mg/kg/injection, schedule: Q04DX003 (ip), vehicle: saline with Tween-80
[15] = dose: 200.0 mg/kg/injection, schedule: Q04DX003 (ip), vehicle: saline with Tween-80
[16] = dose: 400.0 mg/kg/injection, schedule: Q04DX003 (ip), vehicle: saline with Tween-80
[17] = dose: 50.0 mg/kg/injection, schedule: Q04DX003 (ip), vehicle: saline with Tween-80
[18] = dose: 50.0 mg/kg/injection, schedule: Q01DX009 (ip), vehicle: saline with Tween-80

Measured: T/C

COc1ccc(OC)c(C(=O)CCCC(=O)O)c1
inactive: dose: 100.0 mg/kg/injection, schedule: Q01DX001 (ip), vehicle: Klucel (hydroxypropylcellulose) (HPC) 100 % of control | [1] 90 % of control | [2] 100 % of control | dose: 200.0 mg/kg/injection, schedule: Q01DX001 (ip), vehicle: Klucel (hydroxypropylcellulose) (HPC) 104 % of control | [3] 90 % of control | [4] 91 % of control | dose: 400.0 mg/kg/injection, schedule: Q01DX001 (ip), vehicle: Klucel (hydroxypropylcellulose) (HPC) 95 % of control | dose: 400.0 mg/kg/injection, schedule: Q01DX009 (ip), vehicle: Klucel (hydroxypropylcellulose) (HPC) 95 % of control | [5] 87 % of control

CCCCCCCCCCC(O)CN1CCN(c2ccc(C)cc2)CC1 (stereo unspecified)
inactive: [6] 100 % of control | [7] 100 % of control | dose: 176.0 mg/kg/injection, schedule: Q04DX003 (ip), vehicle: saline with Tween-80 90 % of control | [8] 100 % of control | [9] 115 % of control | dose: 264.0 mg/kg/injection, schedule: Q04DX003 (ip), vehicle: saline with Tween-80 90 % of control | [10] 90 % of control

O=C(OC1CC2CCCC21)c1cc([N+](=O)[O-])cc([N+](=O)[O-])c1 (stereo unspecified)
inactive: [11] 94 % of control | [12] 97 % of control | [13] 99 % of control

C=C1C(=O)OCC2C(C(=O)O)=CC3C(C)C(C)=CC123 (stereo unspecified)
inactive: dose: 2.5 mg/kg/injection, schedule: Q01DX009 (ip), vehicle: other 105 % of control | dose: 5.0 mg/kg/injection, schedule: Q04DX003 (ip), vehicle: other 117 % of control | dose: 10.0 mg/kg/injection, schedule: Q01DX009 (ip), vehicle: Klucel (hydroxypropylcellulose) (HPC) 105 % of control and 121 % of control | dose: 10.0 mg/kg/injection, schedule: Q04DX003 (ip), vehicle: other 111 % of control | dose: 20.0 mg/kg/injection, schedule: Q01DX009 (ip), vehicle: Klucel (hydroxypropylcellulose) (HPC) 117 % of control and 120 % of control | dose: 20.0 mg/kg/injection, schedule: Q04DX003 (ip), vehicle: other 124 % of control | dose: 40.0 mg/kg/injection, schedule: Q01DX009 (ip), vehicle: Klucel (hydroxypropylcellulose) (HPC) 121 % of control | dose: 40.0 mg/kg/injection, schedule: Q04DX003 (ip), vehicle: other 119 % of control

O=C1NCC(COc2ccc(Cl)cc2)O1 (stereo unspecified)
inactive: dose: 50.0 mg/kg/injection, schedule: Q01DX009 (ip), vehicle: Klucel (hydroxypropylcellulose) (HPC) 108 % of control | [1] 105 % of control | [3] 105 % of control

O=[N+]([O-])c1ccc(Cc2ccncc2)cc1
inactive: dose: 37.5 mg/kg/injection, schedule: Q01DX009 (ip), vehicle: saline sonified 100 % of control | dose: 75.0 mg/kg/injection, schedule: Q01DX009 (ip), vehicle: saline sonified 95 % of control | dose: 150.0 mg/kg/injection, schedule: Q01DX009 (ip), vehicle: saline sonified 95 % of control

O=C(OC(c1ccccc1)c1ccccc1)C(CSC(c1ccccc1)(c1ccccc1)c1ccccc1)NC(c1ccccc1)(c1ccccc1)c1ccccc1 (stereo unspecified)
inactive: [2] 100 % of control | [4] 109 % of control | [5] 104 % of control

COC(=O)c1ccc(Cn2ccc(=O)n(Cc3ccc(C(=O)OC)cc3)c2=O)cc1
inactive: [14] 100 % of control | [15] 100 % of control | [16] 100 % of control

O=S(=O)(Nc1cc(S(=O)(=O)c2ccccc2)c(O)c2ccccc12)c1ccccc1
inactive: dose: 75.0 mg/kg/injection, schedule: Q01DX001 (ip), vehicle: saline with Tween-80 90 % of control | dose: 150.0 mg/kg/injection, schedule: Q01DX001 (ip), vehicle: saline with Tween-80 90 % of control | dose: 300.0 mg/kg/injection, schedule: Q01DX001 (ip), vehicle: saline with Tween-80 100 % of control

CCCCCCCCCCCCCCCCCOC(=O)CCCCCCCCCCCCCCCCC
inactive: dose: 25.0 mg/kg/injection, schedule: Q04DX003 (ip), vehicle: saline with Tween-80 105 % of control | [17] 105 % of control | [14] 100 % of control

O=c1[nH]c(=O)n(C2CC(O)C(CO)O2)cc1Br (stereo unspecified)
inactive: [7] 100 % of control | [9] 100 % of control | dose: 400.0 mg/kg/injection, schedule: Q04DX003 (ip), vehicle: saline sonified 100 % of control

Clc1ccc2c(c1)Cc1cc(N=Cc3ccccc3Cl)ccc1-2
inactive: dose: 42.5 mg/kg/injection, schedule: Q01DX001 (ip), vehicle: other 86 % of control | dose: 85.0 mg/kg/injection, schedule: Q01DX001 (ip), vehicle: other 95 % of control | dose: 170.0 mg/kg/injection, schedule: Q01DX001 (ip), vehicle: other 100 % of control | dose: 170.0 mg/kg/injection, schedule: Q01DX001 (ip), vehicle: saline with Tween-80 100 % of control

C[C@]12CCCC[C@@H]1CC[C@@H]1[C@@H]2[C@@H](O)C[C@@]2(C)[C@H]1CC[C@]2(C)O
inactive: [18] 104 % of control | [6] 95 % of control | [8] 100 % of control

CN=C(c1ccccc1)C1(O)CC2CCC1C2 (stereo unspecified)
inactive: [11] 100 % of control | [12] 104 % of control | [13] 100 % of control

COc1ccc(/C=N\NC(=O)OC(C)(C)C)c(OC)c1OC
inactive: dose: 100.0 mg/kg/injection, schedule: Q01DX009 (ip), vehicle: acetone 100 % of control | [2] 115 % of control | dose: 200.0 mg/kg/injection, schedule: Q01DX009 (ip), vehicle: acetone 86 % of control | [4] 110 % of control | dose: 400.0 mg/kg/injection, schedule: Q01DX009 (ip), vehicle: acetone 109 % of control | [5] 100 % of control

O=[N+]([O-])c1ccc(N=Nc2c(O)ccc3ccccc23)cc1
inactive: dose: 25.0 mg/kg/injection, schedule: Q01DX009 (ip), vehicle: saline with Tween-80 109 % of control | [18] 100 % of control | [17] 111 % of control | [6] 96 % of control | [14] 120 % of control | [8] 105 % of control | [15] 110 % of control | [10] 106 % of control | [16] 105 % of control

O=C(Nc1cccc2ccccc12)N1c2ccccc2SC12CCCC2
inactive: [6] 91 % of control

NC(=O)c1nc2c([nH]c1=O)CCCC2
inactive: dose: 50.0 mg/kg/injection, schedule: Q01DX009 (ip), vehicle: saline 101 % of control | dose: 100.0 mg/kg/injection, schedule: Q01DX009 (ip), vehicle: saline 100 % of control | dose: 100.0 mg/kg/injection, schedule: Q04DX003 (ip), vehicle: saline 109 % of control | dose: 200.0 mg/kg/injection, schedule: Q01DX009 (ip), vehicle: saline 110 % of control | dose: 200.0 mg/kg/injection, schedule: Q04DX003 (ip), vehicle: saline 104 % of control | dose: 400.0 mg/kg/injection, schedule: Q01DX009 (ip), vehicle: saline 93 % of control | dose: 400.0 mg/kg/injection, schedule: Q04DX003 (ip), vehicle: saline 95 % of control

Cc1c2oc3c(C)c([N+](=O)[O-])cc(C(=O)NC4C(=O)NC(C(C)C)C(=O)N5CCCC5C(=O)N(C)CC(=O)N(C)C(C(C)C)C(=O)OC4C)c3nc-2c(C(=O)NC2C(=O)NC(C(C)C)C(=O)N3CCCC3C(=O)N(C)CC(=O)N(C)C(C(C)C)C(=O)OC2C)c(N)c1=O (stereo unspecified)
active: dose: 150.0 micrograms/kg/injection, schedule: Q01DX009 (ip), vehicle: saline + alcohol 153 % of control
inactive: dose: 450.0 micrograms/kg/injection, schedule: Q04DX003 (ip), vehicle: saline + alcohol 110 % of control | dose: 600.0 micrograms/kg/injection, schedule: Q04DX003 (ip), vehicle: saline + alcohol 108 % of control

Nc1ccc(N(CCCl)CCN(CCCl)c2ccc(N)cc2)cc1
active: dose: 0.8 mg/kg/injection, schedule: Q01DX009 (ip), vehicle: saline 154 % of control | dose: 1.2 mg/kg/injection, schedule: Q01DX009 (ip), vehicle: saline 181 % of control | dose: 1.8 mg/kg/injection, schedule: Q01DX009 (ip), vehicle: saline 204 % of control

C/C(=N\NC(=O)C(=O)N/N=C(\C)c1ccccc1)c1ccccc1
inactive: [18] 96 % of control | [6] 91 % of control

Cc1nc(N)c2nc(SCc3ccc(Cl)cc3)c(N)nc2n1
inactive: [15] 86 % of control | [16] 97 % of control
